Like-named read-outs stand apart in the source and are kept apart here.
Legend:
[1] = system: KYSE-150 esophageal carcinoma cell line; experiment: In vitro cell-based assay: BrdU incorporation cell proliferation ELISA; parameters: species or system human; settings: KYSE-150 cells, 168 hours compound incubation, read-out: Cellular IC50
Method: Cell lines tested include the JMJD2C gene amplified cell line KYSE-150. This is a quantitative ELISA assay measuring DNA incorporation of BrdU during S-phase as a direct readout of cellular proliferation.
Assay Principle: This is a colorimetric immunoassay for the quantification of cell proliferation. Cells treated for 168 hours with test compounds are assayed for their ability to go through S-phase as a measure of their proliferative potential.
Assay Method: The human KYSE-150 (SMAD4 mut, TP53 mut) esophageal carcinoma cell line was seeded at 2,000 cells/well on a 96-well tissue culture treated plate. After an overnight incubation, cells were treated with compound in an 11-point dilution series with final concentrations ranging from 100 μM to 2 nM. Cells were then incubated in the presence of compound for 168 hours. After compound incubation the cells were assayed using a BrdU Cell Proliferation ELISA (Roche). The cells were first incubated with BrdU labeling reagent for 2 hours. After 2 hours, the BrdU incorporated cells were fixed and denatured, probed with an anti-BrdU-Peroxidase antibody for 1.5 hours and washed. Finally, a tetramethylbenzidine peroxidase substrate was added to each well for 15 minutes followed by a H2SO4 stop solution. The plate was read at 450 nm, and the raw optical density data was transferred into XLFit (IDBS) for IC50 calculation using the formula: fit=(D+((Vmax*(x^n))/((x^n)+(Km^n))))
Table 4 provides the cellular IC50 values of various compounds disclosed herein.

JMJD2C = JMJD2C (Homo sapiens (Human), UniProt Q9H3R0); experiment: JMJD2C in vitro enzyme inhibition assay (TR-FRET); assay type: biochemical; settings: 0.3 nM JMJD2C, 300 nM H3K9me3-biotin peptide, 2 μM alpha-ketoglutaric acid, 30 minutes
Method: This assay determines the ability of a test compound to inhibit JMJD2C demethylase activity. Baculovirus expressed JMJD2C (GenBank Accession #BC143571, AA 2-372) was purchased from BPS Bioscience (Cat#50105).
The ability of test compounds to inhibit the activity of JMJD2C was determined in 384-well plate format under the following reaction conditions: 0.3 nM JMJD2C, 300 nM H3K9me3-biotin labeled peptide (Anaspec cat #64360), 2 μM alpha-ketoglutaric acid in assay buffer of 50 mM HEPES, pH7.3, 0.005% Brij35, 0.5 mM TCEP, 0.2 mg/ml BSA, 50 μM sodium L-ascorbate, and 2 μM ammonium iron(II) sulfate. Reaction product was determined quantitatively by TR-FRET after the addition of detection reagent Phycolink Streptavidin-allophycocyanin (Prozyme) and Europium-anti-di-methylated histone H3 lysine 9 (H3K9me2) antibody (PerkinElmer) in the presence of 5 mM EDTA in LANCE detection buffer (PerkinElmer) at a final concentration of 50 nM and 1 nM, respectively.
The assay reaction was initiated by the following: 2 μl of the mixture of 900 nM H3K9me3-biotin labeled peptide and 6 μM alpha-ketoglutaric acid with 2 μl of 11-point serial diluted inhibitor in 3% DMSO were added to each well of the plate, followed by the addition of 2 μl of 0.9 nM JMJD2C to initiate the reaction. The reaction mixture was incubated at room temperature for 30 minutes, and terminated by the addition of 6 μl of 5 mM EDTA in LANCE detection buffer containing 100 nM Phycolink Streptavidin-allophycocyanin and 2 nM Europium-anti-H3K9me2 antibody. Plates were read by EnVisionMultilabel Reader in TR-FRET mode (excitation at 320 nm, emission at 615 nm and 665 nm) after 1 hour incubation at room temperature. A ratio was calculated (665/615) for each well and fitted to determine inhibition constant (IC50).
The ability of the compounds disclosed herein to inhibit demethylase activity was quantified and the respective IC50 value was determined. Table 3 provides the IC50 values of various compounds disclosed herein.

Sequence of JMJD2C (Q9H3R0 2-372): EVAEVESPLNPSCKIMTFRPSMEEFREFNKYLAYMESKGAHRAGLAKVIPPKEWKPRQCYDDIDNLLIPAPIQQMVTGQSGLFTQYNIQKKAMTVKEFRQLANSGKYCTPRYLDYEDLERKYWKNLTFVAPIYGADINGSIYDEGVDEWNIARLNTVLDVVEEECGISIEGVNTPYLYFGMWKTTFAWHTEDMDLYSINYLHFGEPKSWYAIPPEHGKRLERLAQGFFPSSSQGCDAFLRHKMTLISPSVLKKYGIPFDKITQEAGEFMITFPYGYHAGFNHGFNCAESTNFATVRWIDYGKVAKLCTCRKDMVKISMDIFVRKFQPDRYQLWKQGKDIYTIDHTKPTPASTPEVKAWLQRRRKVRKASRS

SMILES | IC50 ([1]; Homo sapiens) [µM] | IC50 (JMJD2C) [µM] | IC50 [1] [µM]
CN(c1ccc(OCC(C)(C)C)cc1)c1ccc(Oc2nc(O)c3ccncc3n2)cc1 [Example 75, 2-[4-[4-(2,2-dimethylpropoxy)-N-methylanilino]phenoxy]pyrido[3,4-d]pyrimidin-4-ol] | ≤ 0.1 | 1 to 10 | –
CC(CC#N)c1ccc(N(C)c2ccc(Oc3nc(O)c4ccncc4n3)cc2)cc1 (stereo not shown) [Example 30, 3-(4-{[4-(4-hydroxy-pyrido[3,4-d]pyrimidin-2-yloxy)-phenyl]-methyl-amino}-phenyl)-butyronitrile] | ≤ 0.1 | 0.1 to 1 | –
CN(c1ccc(Oc2nc(O)c3ccncc3n2)cc1)c1ccccc1F [Example 96] | – | 0.1 to 1 | 1 to 10
Oc1nc(Oc2ccc3c(ccn3Cc3ccccc3)c2)nc2cnccc12 [Example 4, 2-(1-Benzyl-1H-indol-5-yloxy)-pyrido[3,4-d]pyrimidin-4-ol] | 0.1 to 1 | 0.1 to 1 | –
COCC(C)(C)c1ccc(N(C)c2ccc(Oc3nc(O)c4ccncc4n3)cc2)cc1 [Example 67, 2-[4-[4-(1-methoxy-2-methylpropan-2-yl)-N-methylanilino]phenoxy]pyrido[3,4-d]pyrimidin-4-ol] | ≤ 0.1 | 1 to 10 | –
CN(c1ccc(Oc2nc(O)c3ccncc3n2)cc1)c1ccnc(N2CCOCC2)c1 [Example 61, 2-[4-[methyl-(2-morpholin-4-ylpyridin-4-yl)amino]phenoxy]pyrido[3,4-d]pyrimidin-4-ol] | > 10 | ≤ 0.1 | –
CC(CCN)c1ccc(N(C)c2ccc(Oc3nc(O)c4ccncc4n3)cc2)cc1 (stereo not shown) [Example 71, 2-[4-[4-(4-aminobutan-2-yl)-N-methylanilino]phenoxy]pyrido[3,4-d]pyrimidin-4-ol] | 1 to 10 | ≤ 0.1 | –
CNCCC(C)c1ccc(N(C)c2ccc(Oc3nc(O)c4ccncc4n3)cc2)cc1 (stereo not shown) [Example 72, 2-[4-[N-methyl-4-[4-(methylamino)butan-2-yl]anilino]phenoxy]pyrido[3,4-d]pyrimidin-4-ol] | > 10 | ≤ 0.1 | –
COCCN(C)CC(C)c1ccc(N(C)c2ccc(Oc3nc(O)c4ccncc4n3)cc2)cc1 (stereo not shown) [Example 38, 2-{4-[(4-{2-[(2-methoxy-ethyl)-methyl-amino]-1-methyl-ethyl}-phenyl)-methyl-amino]-phenoxy}-pyrido[3,4-d]pyrimidin-4-ol] | ≤ 0.1 | 0.1 to 1 | –
CCN(c1ccc(Oc2nc(O)c3ccncc3n2)cc1)c1ccc(C(C)C)cc1 [Example 117, 2-(4-(ethyl(4-isopropylphenyl)amino)phenoxy)pyrido[3,4-d]pyrimidin-4-ol] | ≤ 0.1 | 1 to 10 | –
CCc1ccc(N(C)c2ccc(Oc3nc(O)c4ccncc4n3)cc2)nc1 [Example 97, 2-[4-[(5-ethylpyridin-2-yl)-methylamino]phenoxy]pyrido[3,4-d]pyrimidin-4-ol] | 0.1 to 1 | 0.1 to 1 | –
CN(c1ccc(CC(F)(F)F)cc1)c1ccc(Oc2nc(O)c3ccncc3n2)cc1 [Example 106, 2-[4-[N-methyl-4-(2,2,2-trifluoroethyl)anilino]phenoxy]pyrido[3,4-d]pyrimidin-4-ol] | ≤ 0.1 | 1 to 10 | –
CN(c1ccc(Oc2nc(O)c3ccncc3n2)cc1)c1ccc(OC(F)(F)F)cc1 [Example 110, 2-[4-[N-methyl-4-(trifluoromethoxy)anilino]phenoxy]pyrido[3,4-d]pyrimidin-4-ol] | 0.1 to 1 | 1 to 10 | –
COCC(C)c1ccc(N(C)c2ccc(Oc3nc(O)c4ccncc4n3)cc2)cc1 (stereo not shown) [Example 29, 2-(4-{[4-(2-methoxy-1-methyl-ethyl)-phenyl]-methyl-amino}-phenoxy)-pyrido[3,4-d]pyrimidin-4-ol] | 0.1 to 1 | 0.1 to 1 | –

More lines, main results first:

IC50 ([1]; Homo sapiens) [µM] | IC50 (JMJD2C) [µM] | SMILES | IC50 [1] [µM]
≤ 0.1 | 0.1 to 1 | CCc1ccc(N(C)c2ccc(Oc3nc(O)c4ccncc4n3)cc2)cc1 [Example 84, 2-[4-(4-ethyl-N-methylanilino)phenoxy]pyrido[3,4-d]pyrimidin-4-ol] | –
≤ 0.1 | 1 to 10 | CC[C@H](C)c1ccc(N(C)c2ccc(Oc3nc(O)c4ccncc4n3)cc2)cc1 [Example 77, 2-[4-[4-[(2S)-butan-2-yl]-N-methylanilino]phenoxy]pyrido[3,4-d]pyrimidin-4-ol] | –
≤ 0.1 | 1 to 10 | CCCc1ccc(N(C)c2ccc(Oc3nc(O)c4ccncc4n3)cc2)cc1 [Example 69, 2-[4-(N-methyl-4-propylanilino)phenoxy]pyrido[3,4-d]pyrimidin-4-ol] | –
0.1 to 1 | 0.1 to 1 | CN(C)c1cccc(N(C)c2ccc(Oc3nc(O)c4ccncc4n3)cc2)c1 [Example 47, 2-[4-[3-(dimethylamino)-N-methylanilino]phenoxy]pyrido[3,4-d]pyrimidin-4-ol] | –
≤ 0.1 | ≤ 0.1 | CN1CCN(c2cccc(N(C)c3ccc(Oc4nc(O)c5ccncc5n4)cc3)c2)CC1 [Example 79, 2-[4-[N-methyl-3-(4-methylpiperazin-1-yl)anilino]phenoxy]pyrido[3,4-d]pyrimidin-4-ol] | –
1 to 10 | 0.1 to 1 | CN(c1ccc(Oc2nc(O)c3ccncc3n2)cc1)c1ccccn1 [Example 1, 2-[4-(Methyl-pyridin-2-yl-amino)-phenoxy]-pyrido[3,4-d]pyrimidin-4-ol] | –
> 10 | 0.1 to 1 | CN(c1ccc(C#N)cc1)c1ccc(Oc2nc(O)c3ccncc3n2)cc1 [Example 81, 4-[4-(4-hydroxypyrido[3,4-d]pyrimidin-2-yl)oxy-N-methylanilino]benzonitrile] | –
1 to 10 | ≤ 0.1 | Cc1ccc(N(C)c2ccc(Oc3nc(O)c4ccncc4n3)cc2)cc1N1CCN(C)CC1 [Example 105, 2-[4-[N,4-dimethyl-3-(4-methylpiperazin-1-yl)anilino]phenoxy]pyrido[3,4-d]pyrimidin-4-ol] | –
0.1 to 1 | 0.1 to 1 | CN(c1ccc(Oc2nc(O)c3ccncc3n2)cc1)c1ccc(C(C)(C)CO)cc1 [Example 68, 2-[4-[4-(1-hydroxy-2-methylpropan-2-yl)-N-methylanilino]phenoxy]pyrido[3,4-d]pyrimidin-4-ol] | –
> 10 | ≤ 0.1 | CCc1ccc(N(C)c2ccc(Oc3nc(O)c4ccncc4n3)cc2)cc1N1CCN(C)CC1 [Example 60, 2-[4-[4-ethyl-N-methyl-3-(4-methylpiperazin-1-yl)anilino]phenoxy]pyrido[3,4-d]pyrimidin-4-ol] | –
0.1 to 1 | 0.1 to 1 | CN(c1ccc(Oc2nc(O)c3ccncc3n2)cc1)c1cccc(N2CCOCC2)c1 [Example 19, 2-{4-[Methyl-(3-morpholin-4-yl-phenyl)-amino]-phenoxy}-pyrido[3,4-d]pyrimidin-4-ol] | –
0.1 to 1 | 1 to 10 | Cc1ccc(N(C)c2ccc(Oc3nc(O)c4ccncc4n3)cc2)cc1C [Example 83, 2-[4-(N,3,4-trimethylanilino)phenoxy]pyrido[3,4-d]pyrimidin-4-ol] | –
> 10 | ≤ 0.1 | CC(CN)c1ccc(N(C)c2ccc(Oc3nc(O)c4ccncc4n3)cc2)cc1 (stereo not shown) [Example 37, 2-(4-{[4-(2-amino-1-methyl-ethyl)-phenyl]-methyl-amino}-phenoxy)-pyrido[3,4-d]pyrimidin-4-ol] | –
> 10 | 0.1 to 1 | CN(c1ccc(Oc2nc(O)c3ccncc3n2)cc1)c1ccc(S(C)(=O)=O)cc1 [Example 57, 2-[4-(N-methyl-4-methylsulfonylanilino)phenoxy]pyrido[3,4-d]pyrimidin-4-ol] | –
0.1 to 1 | 0.1 to 1 | Cc1ccc(N(C)c2ccc(Oc3nc(O)c4ccncc4n3)cc2)nc1 [Example 43, 2-[4-[methyl-(5-methylpyridin-2-yl)amino]phenoxy]pyrido[3,4-d]pyrimidin-4-ol] | –

Reference: patent US10112940B2, “Histone demethylase inhibitors” (Celgene Quanticel Research, Inc., priority 2014, dated 2018)
